A word on the logP: it is the decadic logarithm of the partition coefficient of the neutral form, usually between octanol and water. A higher logP goes with a more lipophilic compound. `CON(C)C(=O)Nc1ccc(OCc2ccccc2)cc1` yielded a logP of 3.11.

`COc1cc(CC(C)N)c(OC)cc1Br` (stereo not drawn) had a logP of 2.58.

Consider `CNN=CCCc1ccccc1`, for which the logP was found to be 1.

In turn, `Cc1ccc(NC2=NCCN2)c(C)c1` returned a logP of 1.79.

`O=C(O)C1CCc2ccccc2O1` (stereo not drawn): the logP was 1.9.

Regarding `NNC(=O)NCc1ccccc1`, the logP was -0.22.

As for `Cc1ccc(OC(=O)CNC(=O)c2ccccc2)cc1`, the logP is 2.83.

`O=C1CN=C(c2cccc(Br)c2)c2cc(Br)ccc2N1` had a logP of 3.88.

Take `CC(C)CNCC(=O)NC(=O)C=[N+]=[N-]`: the logP came out at 0.37.

The compound `CCC1C(=O)NC(=O)N(C)C1=O` (stereo not drawn) showed a logP of 0.15.

Consider `Oc1cc(Cl)c(NC2=NCCN2)c(Cl)c1`, for which the logP was 1.52.

The compound `Cc1cc(NC(=O)NC(=N)N)ccc1Cl` came in with a logP of 2.19.

With `COc1ccc(C(=O)c2ccncc2)cc1`, the log partition coefficient (logP) came to 1.94.

Regarding `CC(=O)Nc1n[nH]c(NC(C)=O)n1`, the log partition coefficient (logP) is -1.02.

Consider `CCC1(CC)OC(=O)c2ccccc21`, for which the logP was found to be 2.69.

`FC(F)(F)COC1C(Cl)C(Cl)C(Cl)C(Cl)C1Cl` (stereo not drawn) displayed a logP of 4.15.

As for `CCCCCCCCCCCCCC[n+]1ccccc1C.[I-]`, the logP was 2.27.

For the compound `COC(=O)C1(n2ccnc2[N+](=O)[O-])CC(OC(C)=O)C(NC(C)=O)C(C(OC(C)=O)C(COC(C)=O)OC(C)=O)O1` (stereo not drawn), the logP worked out at 0.41.

In the case of `CC(=O)C(C#N)=NNc1ccc(Cl)cc1C`, the logP was 4.28.

In the case of `CC(C)=CC1C(C(=O)OCc2cccc([N+](=O)[O-])c2)C1(C)C` (stereo not drawn), the logP was determined as 5.2.

In turn, `CNC(=O)ON=C(C)C(C)(C)[N+](=O)[O-]` gave a logP of 0.66.

As for `CN(C)C(=O)COc1ccccc1`, the logP came out at 0.8.

Compound `CCCCNC(=O)NN` gave a logP of -0.6.

Compound `COc1cc(Cc2cnc(N)nc2N)cc(OC)c1-n1cccc1` gave a logP of 1.78.

Regarding `[O-][n+]1ccccc1SCc1ccccc1`, the logP worked out at 1.24.

With `CCCCCCNP(=O)(OC)SC` (stereo not drawn), the logP was determined as 1.11.

The compound `CN(C)/N=N/c1[nH]ncc1C(N)=O` returned a logP of -0.12.

Regarding `O=c1cn[nH]c2ccccc12`, the logP amounted to 0.82.

As for `CC(=O)OCC1=C(C(=O)O)N2C(=O)[C@@H](NC(=O)CBr)[C@H]2SC1`, the logP is -0.7.

Consider `Cc1ccccc1N1C(=O)CCC1=O`, for which the logP was found to be 0.29.

Regarding `CCOP(=S)(OCC)SCS(=O)(=O)C(C)(C)C`, the logP turned out to be 2.48.

Regarding `c1ccc(Sc2cnn[nH]2)cc1`, the logP was found to be 2.65.

`COc1cc(OC)c(N=C2NCCN2)cc1Cl` registered a logP of 1.38.

Take `O=C(O)CCN1C(=O)C=CC1=O`: the logP worked out at 0.04.

For `CCCN(CC)CC(F)(F)F`, the logP was found to be 2.38.

With `CCCc1nnc(SC)n(N)c1=O`, the logP came to 0.93.

As to `O=C(CNC(=O)c1ccccc1)Oc1cccc(Cl)c1`, the logP was determined as 3.21.

`CSc1cccc(N=NN(C)C)c1`: the log partition coefficient (logP) is 2.98.

`CCC(C)C(=O)NN` (stereo not drawn) returned a logP of -0.33.

As for `CCCC(C)n1nnc2ccccc21` (stereo not drawn), the logP turned out to be 2.95.

In turn, `CNC(=O)NN` gave a logP of -2.2.

Compound `CCc1cc(NC(C)=O)ccc1O` gave a logP of 1.31.

In turn, `COC12C(COC(N)=O)C3=C(C(=O)C(C)=C(N)C3=O)N1CC1C2N1C(=O)OCc1ccccc1` (stereo not drawn) displayed a log partition coefficient (logP) of 1.34.

For `CNC(=O)NCCSCc1[nH]cnc1C`, the logP was -0.06.

`COC12C(COC(N)=O)C3=C(C(=O)C(C)=C(Nc4nccs4)C3=O)N1CC1NC12` (stereo not drawn) showed a logP of 0.62.

On to `CN(N=O)C1CCCCC1`, for which the logP is 1.43.

For `COc1cc(Cc2cnc(N)nc2N)cc(C)c1OC`, the logP came to 1.62.

`CCCOn1c(=O)[nH]c(C)c(SC#N)c1=O` gave a logP of -0.22.

As for `C=Cc1cnc([N+](=O)[O-])n1C`, the lipophilicity (logP) turned out to be 0.64.

The compound `CNP(=O)(OC)SC` (stereo not drawn) displayed a logP of -0.07.

Turning to `CCC(CC)(C(N)=O)c1ccc2c(c1)OCO2`, the logP came out at 1.59.

In turn, `CC(=O)N(C)c1c(I)c(C(=O)NCC(O)CO)c(I)c(C(=O)NCC(O)CO)c1I` (stereo not drawn) returned a logP of -2.06.

Turning to `N#CCNc1ccccc1C(=O)O`, the log partition coefficient (logP) was 1.8.

With `CS(=O)(=O)c1cnc2ccccc2n1`, the lipophilicity (logP) worked out at 0.79.

Regarding `FC1C(Cl)C(Cl)C(Cl)C(Cl)C1Br` (stereo not drawn), the logP was found to be 3.28.

On to `CC(=O)C(C#N)=NNc1ccc(Cl)cc1`, for which the logP was determined as 4.1.

On to `O=C(CN1CCCCC1)Nc1ccc([N+](=O)[O-])cc1`, for which the logP stood at 2.72.

`CCOP(=S)(OCC)SCS(=O)CC` (stereo not drawn) registered a logP of 1.78.

For `CC(=O)NCCn1c([N+](=O)[O-])cnc1C`, the log partition coefficient (logP) was -0.47.

In turn, `CCOC(=O)N(C)SN(C)C(=O)ON=C(C)SC` returned a logP of 1.9.

`CS(=O)(=O)c1cccc(NC(N)=O)c1` came in with a logP of -0.12.

Turning to `O=[N+]([O-])c1nccn1CCOc1ccccc1`, the logP amounted to 1.89.

With `O=C1CCC(=O)N1c1cccc(F)c1`, the logP is 0.38.

Take `CN(C)N=Nc1cccc(C(=O)O)c1`: the logP came out at 2.03.

`CN1C(=O)SC(=CC=Cc2ccc([N+](=O)[O-])o2)C1=O` came in with a logP of 1.4.

In turn, `COc1cc(Cc2cnc(N)nc2N)cc(Cl)c1OC` had a logP of 1.92.

Consider `CCOC(=O)C(=Cc1cccc(Cl)c1)C(=O)OCC`, for which the logP worked out at 3.49.

In turn, `CN(C)C(=O)OCc1ccccc1` displayed a lipophilicity (logP) of 2.16.

The compound `CSC(C)=NOC(=O)N(C)SN(C)C(=O)c1cccc(Cl)c1` had a logP of 2.7.

The compound `CCCCCCc1nnc(N)o1` had a logP of 1.43.

Turning to `Nc1ccc(I)cc1C(=O)O`, the logP was found to be 2.06.

Compound `CN(Cc1ccccc1)N=Nc1ccc(C(N)=O)cc1` returned a logP of 2.76.

`Cc1[nH]c(=O)n(OCCCl)c(=O)c1Br` gave a logP of 0.3.

In turn, `OCC1OC(Oc2ccc(I)cc2)C(O)C(O)C1O` (stereo not drawn) registered a logP of 0.75.

On to `CCCCCCc1nnc(SC)n(N)c1=O`, for which the logP is 2.68.

`CS(=O)(=O)c1cccc(OCC(=O)O)c1` registered a logP of 0.01.

For `Nc1ccc(C(=O)Oc2ccc(Cl)cc2Cl)c(O)c1`, the logP is 4.27.

`NNC(=O)c1ccc(Br)cc1` had a logP of 1.28.

For the compound `CC1=CC(=O)N2C=CCCC2(C)N1` (stereo not drawn), the logP worked out at 0.69.

For `ClC1=CC(Cl)C(Cl)C(Cl)C1` (stereo not drawn), the logP was found to be 3.72.

In turn, `S=C=Nc1ccc(C=Cc2ccccc2)cc1` registered a logP of 5.85.

`O=[N+]([O-])c1cccc(C2NCCS2)c1` (stereo not drawn) had a logP of 1.59.

Take `CCNP(=O)(OC)Oc1cc(Cl)c(Cl)cc1Cl` (stereo not drawn): the logP was 3.18.

As for `CCCNCC(=O)NC(=O)C=[N+]=[N-]`, the logP is -0.24.

`O=C1NC(=S)SC1=CC=Cc1ccc([N+](=O)[O-])o1` had a logP of 0.93.

In turn, `CCOC(=O)C(=Cc1ccccc1Cl)C(=O)OCC` had a logP of 3.15.

`NC(=O)NN=CCCc1ccccc1` returned a logP of 2.32.

`CN(/N=N/c1nc[nH]c1C(N)=O)C(C)(C)C` registered a logP of 0.94.

On to `NS(=O)(=O)c1cccc(OC(=O)CNC(=O)c2ccccc2)c1`, for which the logP stood at 0.84.

For `CC1=Nc2ccc(F)cc2S(=O)(=O)N1`, the lipophilicity (logP) is 0.62.

`CCNCNC(=O)c1ccccc1` registered a logP of 0.56.

For `CSc1ccc2c(c1)C(c1ccccc1)=NCC(=O)N2C`, the logP amounted to 2.95.

As for `O=S1(=O)N=C(Cc2ccccc2)Nc2ccccc21`, the logP stood at 1.89.

Take `CN(C)c1ccc(N(C)C)nn1`: the logP worked out at 0.99.

In turn, `CN(C)N=Nc1ccc(NC(N)=O)cc1` displayed a logP of 1.25.

Compound `CCCCC1OC(=O)c2cc(N)ccc21` (stereo not drawn) showed a lipophilicity (logP) of 2.86.

`O=C(O)COc1cccc(OC(F)(F)F)c1` registered a logP of 2.48.

Regarding `ClC1=C(Cl)C(Cl)C(Cl)C(Cl)C1Cl` (stereo not drawn), the logP was determined as 4.31.

Compound `C=CCOCC(O)Cn1ccnc1[N+](=O)[O-]` (stereo not drawn) registered a logP of 0.4.

For the compound `COc1cc(Cc2cnc(N)nc2N)cc(OC)c1C(C)C`, the logP came out at 3.37.

`CN(C)Cc1ccco1`: the logP was found to be 1.19.

In turn, `Nc1ncnc2nc(-c3cccc([N+](=O)[O-])c3)[nH]c12` registered a logP of 1.93.

The compound `CCOCCn1ccnc1[N+](=O)[O-]` showed a logP of 0.53.

`O=C1CN=C(c2ccccc2)c2cc([N+](=O)[O-])ccc2N1CC(O)CO` (stereo not drawn) returned a logP of 0.96.

The compound `O=NN(CCF)C(=O)NC1CCC(NC(=O)N(CCF)N=O)CC1` (stereo not drawn) registered a logP of 1.34.

Compound `O=C1CN=C(c2cccc(Cl)c2)c2cc(Br)ccc2N1` returned a logP of 3.63.

Regarding `O=[N+]([O-])c1cc(Cl)c(N=C2NCCN2)c(Cl)c1`, the logP was 2.1.

On to `CC(=O)C(C#N)=NNc1cc(Cl)cc(Cl)c1`, for which the logP worked out at 4.68.

`O=C1CCC(=O)N1c1ccccc1C(F)(F)F` came in with a logP of 0.76.

Compound `CC1CNC(=Nc2ncc([N+](=O)[O-])s2)N1` (stereo not drawn) yielded a logP of 1.82.

For the compound `CNC(=O)c1ccccc1/N=N/N(C)C`, the logP turned out to be 1.83.

The compound `CCC(=O)N(C)c1ccc(S(=O)(=O)N(C)C)cc1` yielded a logP of 0.71.

For the compound `CCN(CC)C(=O)NN`, the logP is -0.62.

`Nc1ccc2c(c1)C(c1ccccc1)=NCC(=O)N2`: the logP worked out at 1.

`COc1c(N(C)C)cc(Cc2cnc(N)nc2N)cc1N(C)C` yielded a logP of 2.05.

As to `CCCNP(=O)(OC)Oc1cc(Cl)c(Cl)cc1Cl` (stereo not drawn), the logP came out at 3.7.

Compound `COc1ccccc1C(=O)NN` displayed a logP of 0.25.

`C=CCC1(C2=CCCC2)C(=O)NC(=O)N(C)C1=O` (stereo not drawn): the logP stood at 1.89.

Regarding `Nc1nc(N)nc(-c2c(Cl)cccc2Cl)n1`, the logP came to 1.38.

Compound `COc1cc(S(=O)(=O)CC(O)c2ccccc2)cc(OC)c1OC` (stereo not drawn) yielded a logP of 1.65.

As for `CCCCCCCC1(CC)C(=O)NC(=O)NC1=O`, the logP is 2.91.

Consider `O=C(O)Cc1ccc(OCc2ccccc2)cc1`, for which the lipophilicity (logP) came to 2.72.

In turn, `CC(=O)N(C)/N=N/c1ccc(F)cc1` gave a logP of 2.77.

Compound `CCc1cccc(CC)c1NC1=NCCN1` came in with a log partition coefficient (logP) of 2.48.

The compound `O=CN(Cc1ccccc1)c1ccccc1` yielded a logP of 2.62.

In the case of `COc1cc(Cc2cnc(N)nc2N)ccc1SC`, the logP came to 1.92.

For `Nc1cc([N+](=O)[O-])cc(Cl)c1O`, the logP came to 1.53.

Take `Fc1cccc(F)c1N=C1NCCN1`: the logP was determined as 0.93.

(Values after the OPERA property sets (Mansouri et al. 2018).)
